From PubChem BioAssay (NCI) come the findings set out here.

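Where inhibition never reached the appropriate level, the endpoint shown equals the highest concentration tested. Otherwise, values were interpolated linearly from a five-concentration, 48-hour dose response in 96-well plates. TGI denotes the concentration required for complete inhibition of growth.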 Bounds are passed on as bounds.

Test systems include KM12 colon; TK-10 renal; K-562 leukemia; HL-60(TB) leukemia; OVCAR-3 ovarian; OVCAR-5 ovarian; MDA-MB-435; SN12C renal; MOLT-4 leukemia; SNB-75 CNS; LOX IMVI melanoma; PC-3 prostate; NCI-H226 lung; SW-620 colon; A498 renal; HS 578T breast; U251 CNS; SNB-19 CNS; NCI-H23 lung; RPMI-8226 leukemia.
Holding throughout (test): inhibition of tumour cell growth, NCI panel, 48 h

Consider `O=C1NC(=NCc2ccc(F)cc2)N/C1=C\c1ccccc1Cl`, for which the TGI in the assay with KM12 colon was 53.9 µM; in the assay with TK-10 renal, 67.4 µM; in the assay with K-562 leukemia it was more than 100 µM; in the assay on HL-60(TB) leukemia, 36.5 µM; with OVCAR-3 ovarian it was 32.6 µM; with OVCAR-5 ovarian, 41 µM. Also, the TGI with MDA-MB-435 was 43.9 µM; in the assay with SN12C renal it was 29.6 µM; with MOLT-4 leukemia, more than 100 µM; in the assay on SNB-75 CNS it was 26.6 µM; in the assay with LOX IMVI melanoma, 28.6 µM; with PC-3 prostate, 38.8 µM. Further, the TGI was 69.3 µM in the assay with NCI-H226 lung; 31.1 µM in the assay with SW-620 colon; 34 µM with A498 renal; more than 100 µM with HS 578T breast; 30.4 µM in the assay on U251 CNS; 39.7 µM with SNB-19 CNS.

For the compound `COC(=O)CCC(=O)c1ccc2c(c1)CC1(C2)Cc2ccc(C(=O)CCC(=O)OC)cc2C1`, the TGI in the assay on KM12 colon, with TK-10 renal, in the assay with K-562 leukemia, in the assay with NCI-H23 lung, in the assay with HL-60(TB) leukemia and in the assay on OVCAR-3 ovarian was more than 100 µM throughout. Further, the TGI was more than 100 µM in the assay on OVCAR-5 ovarian; more than 100 µM with MDA-MB-435; more than 100 µM with SN12C renal; more than 100 µM with MOLT-4 leukemia; 0.172 µM in the assay with SNB-75 CNS; more than 100 µM in the assay with RPMI-8226 leukemia. The TGI in the assay with LOX IMVI melanoma, with PC-3 prostate, in the assay on A498 renal, with HS 578T breast and with U251 CNS was more than 100 µM throughout.

Turning to `Cc1ccc(N=C2OP(=O)(Nc3ccc(C)cc3)Oc3ccccc32)cc1` (stereo not given), the TGI in the assay on KM12 colon, in the assay with TK-10 renal, in the assay with K-562 leukemia, in the assay with NCI-H23 lung, in the assay on HL-60(TB) leukemia and with OVCAR-3 ovarian was more than 100 µM each time. The TGI in the assay with OVCAR-5 ovarian, in the assay with MDA-MB-435, with SN12C renal, in the assay on MOLT-4 leukemia, in the assay with SNB-75 CNS and with LOX IMVI melanoma was more than 100 µM each time. Further, the TGI with PC-3 prostate, with NCI-H226 lung, in the assay with SW-620 colon, in the assay on A498 renal, in the assay on HS 578T breast and in the assay on U251 CNS was more than 100 µM throughout. This compound showed a TGI in the assay on SNB-19 CNS of more than 100 µM.

Take `Cc1c(C(=O)Nc2ccccc2)nnn1-c1ccnc2cc(C(F)(F)F)ccc12`: the TGI in the assay with KM12 colon is more than 100 µM; in the assay with TK-10 renal, more than 100 µM; in the assay with K-562 leukemia, more than 100 µM; with NCI-H23 lung it was more than 100 µM; in the assay with HL-60(TB) leukemia, 77.7 µM; in the assay on OVCAR-3 ovarian, more than 100 µM. Further, the TGI in the assay with OVCAR-5 ovarian is more than 100 µM; with MDA-MB-435, more than 100 µM; in the assay on SN12C renal, more than 100 µM; in the assay with MOLT-4 leukemia, 79.6 µM; with SNB-75 CNS, more than 100 µM; in the assay on LOX IMVI melanoma, 78.1 µM. Moreover, the TGI in the assay with PC-3 prostate, in the assay on NCI-H226 lung, in the assay with SW-620 colon, with A498 renal, with HS 578T breast and in the assay with U251 CNS was more than 100 µM throughout. The compound further had a TGI in the assay on SNB-19 CNS of more than 100 µM.

As for `O=S1(=O)c2ccccc2N2C(c3ccccc3)=NOC2(c2ccccc2)CC1c1ccc(Br)cc1` (stereo not given), the TGI with KM12 colon, in the assay on TK-10 renal, in the assay on K-562 leukemia, with NCI-H23 lung, in the assay with HL-60(TB) leukemia and in the assay on OVCAR-3 ovarian was more than 100 µM in each case. In addition, the TGI in the assay with OVCAR-5 ovarian, in the assay with MDA-MB-435, in the assay on SN12C renal, in the assay with MOLT-4 leukemia, with SNB-75 CNS and with LOX IMVI melanoma was more than 100 µM in each case. In addition, the TGI with PC-3 prostate, with NCI-H226 lung, with SW-620 colon, with A498 renal, with HS 578T breast and in the assay with U251 CNS was more than 100 µM each time. In the assay with SNB-19 CNS, the TGI was more than 100 µM.

For `CCCCc1nc(C)oc1C(C)C`, the TGI in the assay on KM12 colon, in the assay on TK-10 renal, in the assay with K-562 leukemia, with NCI-H23 lung, with HL-60(TB) leukemia and in the assay with OVCAR-3 ovarian was more than 100 µM each time. Further, the TGI in the assay on OVCAR-5 ovarian, in the assay with MDA-MB-435, in the assay on SN12C renal, in the assay on MOLT-4 leukemia, with SNB-75 CNS and in the assay on LOX IMVI melanoma was more than 100 µM in each case. For the same compound, the TGI in the assay with PC-3 prostate, with NCI-H226 lung, with SW-620 colon, with A498 renal, in the assay on HS 578T breast and in the assay with U251 CNS was more than 100 µM each time.

For the compound `O=C(Nc1ccccc1)c1cc(S(=O)(=O)N2CCNC2=O)c(S)cc1Cl`, the TGI in the assay on KM12 colon, with TK-10 renal, with K-562 leukemia, with NCI-H23 lung, with HL-60(TB) leukemia and in the assay on OVCAR-3 ovarian was more than 100 µM throughout. For the same compound, the TGI in the assay with OVCAR-5 ovarian, with MDA-MB-435, with SN12C renal, with MOLT-4 leukemia, with SNB-75 CNS and in the assay with RPMI-8226 leukemia was more than 100 µM throughout. The TGI in the assay with LOX IMVI melanoma, with PC-3 prostate, in the assay on SW-620 colon, in the assay with A498 renal, in the assay on HS 578T breast and in the assay with U251 CNS was more than 100 µM each time. Besides, the TGI in the assay with SNB-19 CNS was more than 100 µM.

For the compound `COC(=O)[C@@H]1C[C@]2(Br)c3ccccc3N(S(=O)(=O)c3ccccc3)[C@@H]2N1C(=O)OC`, the TGI with KM12 colon, with TK-10 renal, in the assay with K-562 leukemia, in the assay on NCI-H23 lung, in the assay on HL-60(TB) leukemia and with OVCAR-3 ovarian was more than 100 µM each time. Also, the TGI in the assay with OVCAR-5 ovarian, in the assay on MDA-MB-435, in the assay with SN12C renal, with MOLT-4 leukemia, in the assay with SNB-75 CNS and in the assay with RPMI-8226 leukemia was more than 100 µM each time. Moreover, the TGI with PC-3 prostate, with NCI-H226 lung, with SW-620 colon, with A498 renal, with HS 578T breast and with U251 CNS was more than 100 µM in each case. Also, the TGI in the assay on SNB-19 CNS was more than 100 µM.

Regarding `O=C1c2cn[nH]c2N=C(Nc2ccccc2)C1N=Cc1ccc([N+](=O)[O-])cc1` (stereo not given), the TGI in the assay on KM12 colon, in the assay with TK-10 renal, with K-562 leukemia, in the assay with NCI-H23 lung, in the assay on HL-60(TB) leukemia and in the assay with OVCAR-3 ovarian was more than 10 µM each time. The TGI in the assay on OVCAR-5 ovarian, in the assay with MDA-MB-435, in the assay with SN12C renal, in the assay with MOLT-4 leukemia, with SNB-75 CNS and with LOX IMVI melanoma was more than 10 µM in each case. The TGI in the assay on PC-3 prostate, in the assay with NCI-H226 lung, with HS 578T breast, in the assay on U251 CNS and in the assay on SNB-19 CNS was more than 10 µM throughout.

Turning to `Cc1oc2nc(N(C)C)nc(NN)c2c1C`, the TGI with KM12 colon, in the assay on TK-10 renal, in the assay on K-562 leukemia, with NCI-H23 lung, in the assay on HL-60(TB) leukemia and with OVCAR-3 ovarian was more than 100 µM each time. Also, the TGI with OVCAR-5 ovarian, in the assay on MDA-MB-435, in the assay on SN12C renal, with MOLT-4 leukemia, with SNB-75 CNS and in the assay on RPMI-8226 leukemia was more than 100 µM throughout. Besides, the TGI with PC-3 prostate, in the assay with NCI-H226 lung, in the assay with SW-620 colon, with A498 renal, in the assay with HS 578T breast and in the assay with U251 CNS was more than 100 µM throughout. In addition, in the assay with SNB-19 CNS, the TGI was more than 100 µM.

`NNC(=O)CC(=O)Nc1ccc(S(=O)(=O)c2ccc(NC(=O)CC(=O)NN)cc2)cc1`: the TGI with KM12 colon, in the assay with TK-10 renal, in the assay on K-562 leukemia, in the assay on NCI-H23 lung, in the assay with HL-60(TB) leukemia and in the assay on OVCAR-3 ovarian was more than 100 µM in each case. In addition, the TGI in the assay on OVCAR-5 ovarian, with MDA-MB-435, in the assay with SN12C renal, with MOLT-4 leukemia, in the assay on SNB-75 CNS and in the assay on RPMI-8226 leukemia was more than 100 µM each time. Besides, the TGI with PC-3 prostate, in the assay on NCI-H226 lung, in the assay with SW-620 colon, with A498 renal, with HS 578T breast and in the assay on U251 CNS was more than 100 µM throughout. Also, in the assay with SNB-19 CNS, the TGI was more than 100 µM.

For the compound `O=C1CCCCCCCCCCC1CN1CCOCC1` (stereo not given), the TGI with KM12 colon, with TK-10 renal, with K-562 leukemia, in the assay on NCI-H23 lung, in the assay on HL-60(TB) leukemia and in the assay on OVCAR-3 ovarian was more than 100 µM throughout. The TGI in the assay on OVCAR-5 ovarian, in the assay with MDA-MB-435, in the assay on SN12C renal, in the assay with MOLT-4 leukemia, with RPMI-8226 leukemia and in the assay on PC-3 prostate was more than 100 µM in each case. The TGI in the assay with NCI-H226 lung, in the assay with SW-620 colon, with HS 578T breast, with U251 CNS and in the assay with SNB-19 CNS was more than 100 µM each time.
